# Like-named read-outs stand apart in the source and are kept apart here.
# Legend:
# Type in all cases: cell-based
# S. aureus cErmA = assay: MIC (broth microdilution or agar dilution, CLSI); details: Staphylococcus aureus; S. aureus cErmA; read-out: MIC
# Method: (§1) Minimum inhibitory concentrations (MICs) were determined by broth microdilution method or agar dilution method following the Clinical and Laboratory Standards Institute guidelines. Standard bacterial strains were obtained from American Type Culture Collection (ATCC). Other bacterial strains were obtained from hospitals and commercial sources, so noted in Table 11. Before the start of the MIC experiment, standard and test compound stock solutions were prepared in dimethyl sulfoxide (DMSO, Aldrich D2650) at a stock concentration of 5,120 μg/mL. The compound concentration range typically employed for each experiment was 128-0.06 μg/mL (2.5% final DMSO concentration). Clindamycin was used as a comparator in all experiments and each experiment was performed in triplicate. Specialized procedures were employed for streptococcal and anaerobic strains. All other bacterial strains were sub-cultured on blood agar plates (tryptic soy agar with 5% sheep blood, Hardy Diagnostics) and incubated overnight at 35° C. Organisms were suspended in cation-adjusted Mueller-Hinton broth (CaMHB, BD 212322) and optical density was adjusted to 0.5 McFarland standard. Suspensions were further diluted to obtain a final inoculum of 5×10^5 CFU/mL for broth microdilution experiments.
# P. aeruginosa ATCC 27853 = assay: MIC (broth microdilution or agar dilution, CLSI); details: Pseudomonas aeruginosa, ATCC27853; P. aeruginosa ATCC 27853; read-out: MIC
# Method: as §1
# E. faecium Clinical VRE = assay: MIC (broth microdilution or agar dilution, CLSI); details: Enterococcus faecium; E. faecium Clinical VRE; read-out: MIC
# Method: as §1
# E. coli ΔTolC = assay: microbe, parasite or virus in culture; details: Escherichia coli
# Method: (§2) Minimum inhibitory concentrations (MICs) were determined by broth microdilution method or agar dilution method following the Clinical and Laboratory Standards Institute guidelines. Standard bacterial strains were obtained from American Type Culture Collection (ATCC). Other bacterial strains were obtained from hospitals and commercial sources, so noted in Table 11. […] Specialized procedures were employed for streptococcal and anaerobic strains. All other bacterial strains were sub-cultured on blood agar plates (tryptic soy agar with 5% sheep blood, Hardy Diagnostics) and incubated overnight at 35° C. […] Suspensions were further diluted to obtain a final inoculum of 5×10^5 CFU/mL for broth microdilution experiments.
# A. baumannii ATCC 19606 = assay: MIC (broth microdilution or agar dilution, CLSI); details: Acinetobacter baumannii, ATCC19606; A. baumannii ATCC 19606; read-out: MIC
# Method: as §2
# S. pyogenes ATCC 19615 = assay: MIC (broth microdilution or agar dilution, CLSI); details: Streptococcus pyogenes, read-out: MIC
# Method: as §2
# E. coli LptD = assay: MIC (broth microdilution or agar dilution, CLSI); details: Escherichia coli, read-out: MIC
# Method: as §2
# E. faecalis ATCC 29212 = assay: MIC (broth microdilution or agar dilution, CLSI); details: Enterococcus faecalis, read-out: MIC
# Method: as §2
# S. aureus ATCC 29213 = assay: MIC (broth microdilution or agar dilution, CLSI); details: Staphylococcus aureus, read-out: MIC
# Method: as §2
# S. pneumoniae ATCC 49619 = assay: MIC (broth microdilution or agar dilution, CLSI); details: Streptococcus pneumoniae, read-out: MIC
# Method: as §2
# K. oxytoca Clinical = assay: MIC (broth microdilution or agar dilution, CLSI); details: Klebsiella oxytoca, read-out: MIC
# Method: as §2
# E. coli ATCC 25922 = assay: MIC (broth microdilution or agar dilution, CLSI); details: Escherichia coli, ATCC25922, read-out: MIC
# Method: as §2
# S. aureus MP-549 msrA = assay: microbe, parasite or virus in culture; details: Staphylococcus aureus, MP549MSRA; S. aureus HAV#032, MP-549; MSR(A)
# Method: as §2
# S. aureus BAA 977 iErmA = assay: microbe, parasite or virus in culture; details: Staphylococcus aureus, BAA-977 / MRSA
# Method: as §2
# [1] = test system: broad panel of different clinical isolates; assay: microbe, parasite or virus in culture
# Method: as §2
# [2] = test system: S. pyogenes MMX 946; cErmB; assay: MIC (broth microdilution or agar dilution, CLSI); details: Streptococcus pyogenes; S. pyogenes HAV#035, MMX 946; cErmB, mac-resistant; read-out: MIC
# Method: as §2
# S. aureus MMX 3035 cErmA = assay: MIC (broth microdilution or agar dilution, CLSI); details: Staphylococcus aureus, MMX3035CERMA; S. aureus HAV#031, MMX 3035; cErmA; read-out: MIC
# Method: as §2
# S. pneumoniae ATCC 6303 = assay: MIC (broth microdilution or agar dilution, CLSI); details: Streptococcus pneumoniae, ATCC6303; S. pneumoniae HAV#351, ATCC 6303; read-out: MIC
# Method: as §2
# [3] = test system: E. faecalis MMX 847; cErmB; assay: MIC (broth microdilution or agar dilution, CLSI); details: Enterococcus faecalis; E. faecalis HAV#036, MMX 847; mac-resistant, cErmB; read-out: MIC
# Method: as §2
# [4] = test system: S. aureus ATCC BAA-1707 (MRSA); assay: MIC (broth microdilution or agar dilution, CLSI); details: Staphylococcus aureus; S. aureus HAV#016, ATCC BAA-1707; MRSA; read-out: MIC
# Method: as §2
# [5] = test system: S. pneumoniae MMX 3028 cErmB; assay: MIC (broth microdilution or agar dilution, CLSI); details: Streptococcus pneumoniae, MMX3028CERMB; S. pneumoniae HAV#033; MMX 3028, cErmB; read-out: MIC
# Method: as §2
# S. aureus hVISA = assay: MIC (broth microdilution or agar dilution, CLSI); details: Staphylococcus aureus; S. aureus HAV#204, hVISA; read-out: MIC
# Method: as §2
# [6] = test system: S. pneumoniae MMX 3031 cMefA; assay: MIC (broth microdilution or agar dilution, CLSI); details: Streptococcus pneumoniae, MMX3031CMEFA, S. pneumoniae HAV#034; MMX 3031, cMefA; read-out: MIC
# Method: as §2
# [7] = ATCC19615, S. pyogenes ATCC 19615
# [8] = ATCC29212, E. faecalis ATCC 29212
# [9] = ATCC29213, S. aureus ATCC 29213
# [10] = ATCC49619, S. pneumoniae ATCC 49619
structure (smiles),measurement,setting,value
C=C[C@@H]1CCO[C@@H]2[C@H](CN[C@@H]2C(=O)N[C@H]([C@H](C)Cl)[C@H]2OC(SC)[C@H](O)[C@H](O)C2O)C1 (stereo partly drawn) [FSA-10-10-013],MIC,S. aureus cErmA,64 µg/mL
same,MIC,P. aeruginosa ATCC 27853,> 128 µg/mL
same,MIC,E. faecium Clinical VRE,32 µg/mL
same,MIC,E. coli ΔTolC; E. coli ΔTolC,2 µg/mL
same,MIC,A. baumannii ATCC 19606,> 128 µg/mL
same,MIC,S. pyogenes ATCC 19615; [7],0.25 µg/mL
same,MIC,E. coli LptD; E. coli LptD,4 µg/mL
same,MIC,E. faecalis ATCC 29212; [8],2 µg/mL
same,MIC,S. aureus ATCC 29213; [9],0.25 µg/mL
same,MIC,S. pneumoniae ATCC 49619; [10],0.25 µg/mL
same,MIC,K. oxytoca Clinical; K. oxytoca Clinical,128 µg/mL
same,MIC,E. coli ATCC 25922; E. coli ATCC 25922,64 µg/mL
CSC1O[C@H]([C@H](NC(=O)[C@H]2NC[C@@H]3C[C@H](C)CCO[C@H]32)[C@H](C)Cl)C(O)[C@@H](O)[C@H]1O (stereo partly drawn) [FSA-10-10-014],MIC,S. aureus cErmA,64 µg/mL
same,MIC,P. aeruginosa ATCC 27853,> 128 µg/mL
same,MIC,E. faecium Clinical VRE,64 µg/mL
same,MIC,E. coli ΔTolC; E. coli ΔTolC,8 µg/mL
same,MIC,A. baumannii ATCC 19606,> 128 µg/mL
same,MIC,S. pyogenes ATCC 19615; [7],1 µg/mL
same,MIC,E. coli LptD; E. coli LptD,8 µg/mL
same,MIC,E. faecalis ATCC 29212; [8],16 µg/mL
same,MIC,S. aureus ATCC 29213; [9],1 µg/mL
same,MIC,S. pneumoniae ATCC 49619; [10],2 µg/mL
same,MIC,K. oxytoca Clinical; K. oxytoca Clinical,128 µg/mL
same,MIC,E. coli ATCC 25922; E. coli ATCC 25922,64 µg/mL
COCCC[C@@H]1CCO[C@@H]2[C@H](CN[C@@H]2C(=O)N[C@H]([C@H](C)Cl)[C@H]2OC(SC)[C@H](O)[C@H](O)C2O)C1 (stereo partly drawn) [FSA-10-10-022],MIC,S. aureus cErmA,16 µg/mL
same,MIC,P. aeruginosa ATCC 27853,> 128 µg/mL
same,MIC,E. faecium Clinical VRE,8 µg/mL
same,MIC,E. coli ΔTolC; E. coli ΔTolC,0.5 µg/mL
same,MIC,A. baumannii ATCC 19606,> 128 µg/mL
same,MIC,S. pyogenes ATCC 19615; [7],0.25 µg/mL
same,MIC,E. coli LptD; E. coli LptD,4 µg/mL
same,MIC,E. faecalis ATCC 29212; [8],2 µg/mL
same,MIC,S. aureus ATCC 29213; [9],0.125 µg/mL
same,MIC,S. pneumoniae ATCC 49619; [10],0.25 µg/mL
same,MIC,K. oxytoca Clinical; K. oxytoca Clinical,32 µg/mL
same,MIC,E. coli ATCC 25922; E. coli ATCC 25922,32 µg/mL
Cc1onc(-c2ccccc2)c1C(=O)N[C@@H]1C(=O)N2[C@@H]1SC(C)(C)[C@@H]2C(=O)O [Oxacillin],MIC,"E. coli ΔTolC; E. coli HAV#038, ΔTolC",16 µg/mL
same,MIC,S. aureus MP-549 msrA,64 µg/mL
same,MIC,S. aureus BAA 977 iErmA,0.5 µg/mL
same,MIC,"[1]; Enterococcus faecalis, VRE, E. faecalis HAV#251, Clinical VRE",> 64 µg/mL
same,MIC,"[1]; Staphylococcus aureus, MRSA, S. aureus HAV#0107, MRSA Col(Colindale, England)",> 64 µg/mL
same,MIC,"[1]; Staphylococcus aureus, VISA, S. aureus HAV#203, Clinical (VISA)",64 µg/mL
same,MIC,"S. pyogenes ATCC 19615; ATCC19615, S. pyogenes HAV#004, ATCC 19615",0.125 µg/mL
same,MIC,"E. coli LptD; E. coli HAV#040, LptD",4 µg/mL
same,MIC,"E. faecalis ATCC 29212; ATCC29212, E. faecalis HAV#005, ATCC 29212",32 µg/mL
same,MIC,[2],0.25 µg/mL
same,MIC,S. aureus MMX 3035 cErmA,> 64 µg/mL
same,MIC,"S. aureus ATCC 29213; ATCC29213, S. aureus HAV#001, ATCC 29213, MP-549",0.5 µg/mL
same,MIC,"S. pneumoniae ATCC 49619; ATCC49619, S. pneumoniae HAV#003, ATCC 49619",2 µg/mL
same,MIC,S. pneumoniae ATCC 6303,0.5 µg/mL
same,MIC,[3],64 µg/mL
same,MIC,"K. oxytoca Clinical; K. oxytoca HAV#450, Clinical",> 64 µg/mL
same,MIC,[4],> 64 µg/mL
same,MIC,[5],2 µg/mL
same,MIC,S. aureus hVISA,64 µg/mL
same,MIC,"E. coli ATCC 25922; E. coli HAV#006, ATCC 25922",> 64 µg/mL
same,MIC,[6],16 µg/mL
